Among the data in US7211572B2 (Japan Tobacco Inc., priority 2003, dated 2007) are IC50 values, retold here.

The target of the test is T1, HIV integrase (Human immunodeficiency virus type 1 group M subtype B, UniProt P12497, F1332H).
T1 construct: HIV integrase full length gene; made in house; host or cells: Escherichia coli BL21(DE3), plasmid pET21a-INH
Nature of the test: Determination of enzyme (HIV integrase) inhibitory activity. Format: biochemical. The note with it: recombinant HIV integrase (F185H), strand transfer ELISA, absorbance at 450 nm. The essentials:
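Full-length integrase with F185H, expressed in E. coli and purified, was reacted for 60 min at 37 °C with compound and biotinylated donor DNA bound to streptavidin plates. Target DNA was added for 10 min, then anti-digoxigenin-peroxidase detection at A450; IC50 from % inhibition versus enzyme-free blank.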
A general note: In an ELISA, binding on a coated surface is turned into a signal by an enzyme label.

Counter-ions that a name gives are not always drawn.

For `COC(=O)c1cn(Cc2ccc(Cl)c(Cl)c2)c(=O)c2c(O)c(=O)ccn12` [Example 89, methyl 2-(3,4-dichlorobenzyl)-9-hydroxy-1,8-dioxo-1,8-dihydro-2H-pyrido[1,2-a]pyrazine-4-carboxylate], the IC50 lay within 10 to 100 nM.

On to `O=c1ccn2ccn(Cc3ccc(F)c(Cl)c3)c(=O)c2c1O` [Example 90, 2-(3-chloro-4-fluorobenzyl)-9-hydroxy-2H-pyrido[1,2-a]pyrazine-1,8-dione hydrochloride], for which the IC50 was less than 10 nM.

On to `O=c1ccn2ccn(CCCc3cccc(Cl)c3Cl)c(=O)c2c1O` [Example 91, 2-[3-(2,3-dichlorophenyl)propyl]-9-hydroxy-2H-pyrido[1,2-a]pyrazine-1,8-dione hydrochloride], for which the IC50 is 10 to 100 nM.

As for `CC(C)c1cn(Cc2ccc(F)c(Cl)c2)c(=O)c2c(O)c(=O)ccn12` [Example 92, 2-(3-chloro-4-fluorobenzyl)-9-hydroxy-4-isopropyl-2H-pyrido[1,2-a]pyrazine-1,8-dione hydrochloride], the IC50 is less than 10 nM.

As to `COC(=O)c1cn(Cc2cccc(Cl)c2)c(=O)c2c(O)c(=O)ccn12` [Example 93, methyl 2-(3-chlorobenzyl)-9-hydroxy-1,8-dioxo-1,8-dihydro-2H-pyrido[1,2-a]pyrazine-4-carboxylate], the concentration for half-maximal inhibition (IC50) lay in the range of 10 to 100 nM.

With `O=c1c(Br)cn2ccn(Cc3cccc(Cl)c3)c(=O)c2c1O` [Example 94, 7-bromo-2-(3-chlorobenzyl)-9-hydroxy-2H-pyrido[1,2-a]pyrazine-1,8-dione hydrochloride], the half-inhibitory concentration (IC50) was in the range of 10 to 100 nM.

For `O=c1ccn2ccn(CCCc3c(F)cccc3Cl)c(=O)c2c1O` [Example 95, 2-[3-(2-chloro-6-fluorophenyl)propyl]-9-hydroxy-2H-pyrido[1,2-a]pyrazine-1,8-dione hydrochloride], the half-inhibitory concentration (IC50) lay within 10 to 100 nM.

`O=c1c(-c2ccccc2)cn2ccn(Cc3cccc(Cl)c3)c(=O)c2c1O` [Example 96, 2-(3-chlorobenzyl)-9-hydroxy-7-phenyl-2H-pyrido[1,2-a]pyrazine-1,8-dione hydrochloride]: the IC50 was less than 10 nM.

Consider `CN(C)C(=O)c1cn(Cc2cccc(Cl)c2)c(=O)c2c(O)c(=O)ccn12` [Example 97, N,N-dimethyl-2-(3-chlorobenzyl)-9-hydroxy-1,8-dioxo-1,8-dihydro-2H-pyrido[1,2-a]pyrazine-4-carboxamide], for which the IC50 was 10 to 100 nM.

Regarding `O=C(O)c1cn(Cc2cccc(Cl)c2)c(=O)c2c(O)c(=O)ccn12` [Example 98, 2-(3-chlorobenzyl)-9-hydroxy-1,8-dioxo-1,8-dihydro-2H-pyrido[1,2-a]pyrazine-4-carboxylic acid], the IC50 lay within 10 to 100 nM.

As to `O=c1c(O)c2c(=O)n(Cc3cccc(Cl)c3)ccn2c2ccccc12` [Example 99, 3-(3-chlorobenzyl)-5-hydroxy-3H-pyrazino[1,2-a]quinoline-4,6-dione hydrochloride], the IC50 fell in the range of 10 to 100 nM.

Consider `O=c1ncn2ccn(Cc3cccc(Cl)c3)c(=O)c2c1O` [Example 100, 2-(3-chlorobenzyl)-9-hydroxy-2H-pyrazino[1,2-c]pyrimidine-1,8-dione hydrochloride], for which the IC50 is 10 to 100 nM.

On to `O=Cc1cn(Cc2cccc(Cl)c2)c(=O)c2c(O)c(=O)ccn12` [Example 101, 2-(3-chlorobenzyl)-9-hydroxy-1,8-dioxo-1,8-dihydro-2H-pyrido[1,2-a]pyrazine-4-carbaldehyde], for which the IC50 is 10 to 100 nM.

On to `O=c1ccn2c(CO)cn(Cc3cccc(Cl)c3)c(=O)c2c1O` [Example 102, 2-(3-chlorobenzyl)-9-hydroxy-4-hydroxymethyl-2H-pyrido[1,2-a]pyrazine-1,8-dione], for which the half-maximal inhibitory concentration (IC50) lay in the range of 10 to 100 nM.

`CC(O)c1cn(Cc2cccc(Cl)c2)c(=O)c2c(O)c(=O)ccn12` (stereo not shown) [Example 103, 2-(3-chlorobenzyl)-9-hydroxy-4-(1-hydroxyethyl)-2H-pyrido[1,2-a]pyrazine-1,8-dione]: the half-inhibitory concentration (IC50) fell in the range of 10 to 100 nM.

As to `CC(C)c1cn2ccn(Cc3cccc(Cl)c3)c(=O)c2c(O)c1=O` [Example 104, 2-(3-chlorobenzyl)-9-hydroxy-7-isopropyl-2H-pyrido[1,2-a]pyrazine-1,8-dione hydrochloride], the half-inhibitory concentration (IC50) was in the range of 10 to 100 nM.

In the case of `CC(=O)c1cn(Cc2cccc(Cl)c2)c(=O)c2c(O)c(=O)ccn12` [Example 105, 4-acetyl-2-(3-chlorobenzyl)-9-hydroxy-2H-pyrido[1,2-a]pyrazine-1,8-dione], the half-maximal inhibitory concentration (IC50) is 10 to 100 nM.

Consider `Cn1cc2c(c(O)c1=O)C(=O)N(Cc1cccc(Cl)c1)CC2` [Example 106, 2-(3-chlorobenzyl)-8-hydroxy-6-methyl-2,3,4,6-tetrahydro-2,6-naphthyridine-1,7-dione], for which the concentration for half-maximal inhibition (IC50) lay within 10 to 100 nM.

Consider `N#Cc1cn(Cc2cccc(Cl)c2)c(=O)c2c(O)c(=O)ccn12` [Example 107, 2-(3-chlorobenzyl)-9-hydroxy-1,8-dioxo-1,8-dihydro-2H-pyrido[1,2-a]pyrazine-4-carbonitrile], for which the IC50 was 10 to 100 nM.

Take `O=C1c2c(O)c(=O)ncn2CCN1Cc1cccc(Cl)c1` [Example 108, 2-(3-chlorobenzyl)-9-hydroxy-3,4-dihydro-2H-pyrazino[1,2-c]pyrimidine-1,8-dione]: the 50% inhibitory concentration (IC50) was in the range of 10 to 100 nM.

In the case of `CS(=O)(=O)Oc1c(=O)c(Br)cn2ccn(Cc3cccc(Cl)c3)c(=O)c12` [Example 109, 7-bromo-2-(3-chlorobenzyl)-1,8-dioxo-1,8-dihydro-2H-pyrido[1,2-a]pyrazin-9-yl methanesulfonate], the 50% inhibitory concentration (IC50) lay within 100 to 1000 nM.

As for `O=C1c2c(O)c(=O)c(Br)cn2CC(O)N1Cc1cccc(Cl)c1` (stereo not shown) [Example 110, 7-bromo-2-(3-chlorobenzyl)-3,9-dihydroxy-3,4-dihydro-2H-pyrido[1,2-a]pyrazine-1,8-dione hydrochloride], the IC50 was 100 to 1000 nM.

In the case of `O=C1c2c(O)c(=O)c3ccccc3n2CCN1Cc1cccc(Cl)c1` [Example 111, 3-(3-chlorobenzyl)-5-hydroxy-2,3-dihydro-1H-pyrazino[1,2-a]quinoline-4,6-dione], the concentration for half-maximal inhibition (IC50) is 10 to 100 nM.

On to `O=c1c(-c2cccc(Cl)c2)cn2ccn(Cc3cccc(Cl)c3)c(=O)c2c1O` [Example 112, 2-(3-chlorobenzyl)-7-(3-chlorophenyl)-9-hydroxy-2H-pyrido[1,2-a]pyrazine-1,8-dione hydrochloride], for which the IC50 is 10 to 100 nM.

As to `O=c1c(-c2ccc(Cl)cc2)cn2ccn(Cc3cccc(Cl)c3)c(=O)c2c1O` [Example 113, 2-(3-chlorobenzyl)-7-(4-chlorophenyl)-9-hydroxy-2H-pyrido[1,2-a]pyrazine-1,8-dione hydrochloride], the IC50 lay within 10 to 100 nM.

Regarding `O=c1c(-c2ccccc2Cl)cn2ccn(Cc3cccc(Cl)c3)c(=O)c2c1O` [Example 114, 2-(3-chlorobenzyl)-7-(2-chlorophenyl)-9-hydroxy-2H-pyrido[1,2-a]pyrazine-1,8-dione hydrochloride], the IC50 was less than 10 nM.

Take `O=c1c(-c2cccnc2)cn2ccn(Cc3cccc(Cl)c3)c(=O)c2c1O` [Example 115, 2-(3-chlorobenzyl)-9-hydroxy-7-(pyridin-3-yl)-2H-pyrido[1,2-a]pyrazine-1,8-dione hydrochloride]: the IC50 was less than 10 nM.

Turning to `O=c1c(-c2ccncc2)cn2ccn(Cc3cccc(Cl)c3)c(=O)c2c1O` [Example 116, 2-(3-chlorobenzyl)-9-hydroxy-7-(pyridin-4-yl)-2H-pyrido[1,2-a]pyrazine-1,8-dione hydrochloride], the concentration for half-maximal inhibition (IC50) is less than 10 nM.

For `O=c1c(-c2ccccn2)cn2ccn(Cc3cccc(Cl)c3)c(=O)c2c1O` [Example 117, 2-(3-chlorobenzyl)-9-hydroxy-7-(pyridin-2-yl)-2H-pyrido[1,2-a]pyrazine-1,8-dione hydrochloride], the half-maximal inhibitory concentration (IC50) is less than 10 nM.

As for `CC(C)(C)C(O)c1cn2ccn(Cc3cccc(Cl)c3)c(=O)c2c(O)c1=O` (stereo not shown) [Example 118, 2-(3-chlorobenzyl)-9-hydroxy-7-(1-hydroxy-2,2-dimethylpropyl)-2H-pyrido[1,2-a]pyrazine-1,8-dione hydrochloride], the IC50 lay in the range of 10 to 100 nM.

Take `O=c1c(-c2ccccc2)cn2c(CC3CCCCC3)cn(Cc3cccc(Cl)c3)c(=O)c2c1O` [Example 119, 2-(3-chlorobenzyl)-4-cyclohexylmethyl-9-hydroxy-7-phenyl-2H-pyrido[1,2-a]pyrazine-1,8-dione hydrochloride]: the 50% inhibitory concentration (IC50) is 100 to 1000 nM.

Regarding `O=c1c(-c2ccco2)cn2ccn(Cc3cccc(Cl)c3)c(=O)c2c1O` [Example 120, 2-(3-chlorobenzyl)-7-(furan-2-yl)-9-hydroxy-2H-pyrido[1,2-a]pyrazine-1,8-dione hydrochloride], the IC50 is less than 10 nM.

For the compound `Cn1cc2c(c(O)c1=O)C(=O)N(Cc1ccc(Cl)c(Cl)c1)CC2` [Example 121, 2-(3,4-dichlorobenzyl)-8-hydroxy-6-methyl-2,3,4,6-tetrahydro-2,6-naphthyridine-1,7-dione], the concentration for half-maximal inhibition (IC50) is less than 10 nM.

In the case of `Cn1cc2c(c(O)c1=O)C(=O)N(CCCc1c(F)cccc1Cl)CC2` [Example 122, 2-[3-(2-chloro-6-fluorophenyl)propyl]-8-hydroxy-6-methyl-2,3,4,6-tetrahydro-2,6-naphthyridine-1,7-dione], the IC50 is less than 10 nM.

`Cn1nc2c(c(O)c1=O)C(=O)N(Cc1cccc(Cl)c1)CC2` [Example 123, 6-(3-chlorobenzyl)-4-hydroxy-2-methyl-2,6,7,8-tetrahydropyrido[4,3-c]pyridazine-3,5-dione]: the half-inhibitory concentration (IC50) lay in the range of 100 to 1000 nM.

In the case of `O=c1c(-c2cc3ccccc3o2)cn2ccn(Cc3cccc(Cl)c3)c(=O)c2c1O` [Example 124, 7-(benzofuran-2-yl)-2-(3-chlorobenzyl)-9-hydroxy-2H-pyrido[1,2-a]pyrazine-1,8-dione hydrochloride], the concentration for half-maximal inhibition (IC50) was 10 to 100 nM.

Turning to `CC(C)(C)C(=O)c1cn2ccn(Cc3cccc(Cl)c3)c(=O)c2c(O)c1=O` [Example 125, 2-(3-chlorobenzyl)-7-(2,2-dimethylpropionyl)-9-hydroxy-2H-pyrido[1,2-a]pyrazine-1,8-dione hydrochloride], the IC50 was less than 10 nM.

By IC50 is commonly meant the midpoint of a concentration-inhibition curve.
